Reference: patent publication US20070191324A1, “Methods for treatment or prophylaxis of aldosterone-mediated pathogenic effects in a subject using an epoxy-steroidal aldosterone antagonist” (priority 1999, published 2007)
Read-outs that look alike come from different tables or passages of the source.

Columns and labels:
[1] = test system: aldosterone/salt uninephrectomized rats; experiment: Myocardial injury in aldosterone/salt uninephrectomized rats (Example A-6); format: in vivo, Sprague Dawley rats; conditions: eplerenone in chow 100 mg/k/d; aldosterone 0.75 ug/hr, 1% NaCl
Description: The rats were then implanted with Alzet mini pump that subcutaneously delivered either aldosterone (0.75 ug/hr) or vehicle. […] Blood pressure was measured by radio telemetry units implanted in abdominal aorta. Rats were sacrificed for examination of the hearts.

[2] = test system: saline-drinking SHRSP; experiment: Stroke and cerebrovascular damage in saline-drinking SHRSP (Example A-7); format: in vivo, rat; conditions: 100 mg/kg/day, up to 18.5 weeks of age
Source text: Fifteen male, 9 weeks of age, saline-drinking SHRSP were included in the experiment. […] A-12). […] Using a semi-quantitative scoring system from 0-4 for cerebral injury (FIG.

[3] = test system: older patients with systolic hypertension and/or widened pulse pressure; experiment: Eplerenone versus amlodipine in systolic hypertension in older people, 24 weeks (Examples A-19, D-8); format: in vivo, human
Source text: At Week 10 or thereafter, if SBP is =170 mmHg on two consecutive visits, one to three days apart, and the patient is on the maximum dose of study drug, he/she must be withdrawn. Patients will receive double-blind study medication for a total of 24 weeks. Table A-19A illustrates the above-described dosing scheme.
Heart rate, BP, serum potassium levels, concomitant medications and adverse events will be assessed at each visit. […] Special studies: collagen markers [aminoterminal propeptide of type III procollagen (PIIINP), 7S domain of type IV collagen (7SIVC), and type I collagen telopeptide (ICTP)], plasma […] (PAI-1), tissue plasminogen activator (t-PA), microalbuminuria, and at selected sites, Ambulatory Blood Pressure Monitoring (ABPM) and arterial compliance will be done at Weeks 0, 14, and 24 or at Final Visit. Quality of Life Questionnaires will be done at visit 2A (beginning of single blind) and Weeks 0, 14, and 24 or at Final Visit. DNA genotyping will be performed at baseline.
In older patients, elevated systolic BP and wide pulse pressure predict cardiovascular risk better than diastolic BP. Reduced vascular compliance and intraglomerular hypertension typically accompany isolated systolic hypertension in older people.
Changes in arterial compliance, measured by pulse-wave velocity, microalbuminuria, and adverse effects (AEs) were assessed at baseline and after 24 weeks of therapy.

[4] = test system: hypertensive patients; experiment: Eplerenone vs. amlodipine, ambulatory blood pressure monitoring, 16 weeks (Example D-12); format: in vivo, human
Source text: This was a multicenter, randomized, double-blind, active-controlled, placebo run-in, parallel group study. […] If symptomatic hypotension occurred at Week 2 or Weeks 4, 6, 8, or 12 and the patient was on the lowest dose level (Dose Level 1), the patient was to be withdrawn. Study assessments at protocol-specified timepoints included BP, heart rate, ABPM, Holter recording, clinical laboratory analyses including serum potassium levels, concomitant medications. Throughout the study, safety was assessed by routine clinical laboratory analyses, vital signs, physical examinations, 12-lead ECG, and monitoring of adverse events.

[5] = Food effect pharmacokinetic studies, Japan and Ex-Japan (Example A-11); format: in vivo, human; conditions: single 100 mg; for AUC(0-inf) / Cmax / AUC: male, human, in vivo, oral, 100 mg; for AUC: read-out: AUC (0-lqc)
Description: The […] trials included (i) a single dose tolerability trial, and (ii) a multiple dose tolerability trial, and (iii) a food effect study.
Both single dose and multiple dose tolerability trials were conducted in Japan utilizing healthy male Japanese subjects. […] Six subjects who received the 100 mg dose also participated in the food effect treatment arm of the single dose tolerability trial.
Table A-11C contains the geometric least squares means for the fed and fasting regimens, the ratios of means and the corresponding 95% confidence intervals (CI) for the ratios of the means for the Japan and Ex-Japan food effect trials.
Each panel consisted of six subjects who were given eplerenone and two subjects who were given placebo.

[6] = test system: black and white patients with mild-to-moderate hypertension; conditions: for Active Renin (% change) / ΔDBP / ΔSBP: baseline to Week 16
[7] = test system: patients with stage I-III hypertension; experiment: Fixed-dose eplerenone vs placebo, clinic and ambulatory BP, 12 weeks (Example D-13); format: in vivo, human
Source text: Patients were reassessed using clinic and ambulatory BP at the end of 12 weeks of therapy.

[8] = test system: patients with mild-to-moderate hypertension; experiment: Eplerenone versus enalapril in essential hypertension, 12-month titration-to-effect (Example D-3); format: in vivo, human
Description: The study design is illustrated in FIG. D-6. Patients with mild-to-moderate hypertension (diastolic blood pressure [DBP]≧95 mmHg and <110 mmHg) were randomized to receive initially EPL 50 mg QD (n=253) or ENAL 10 mg QD (n=246). If DBP ≧90 mmHg at Weeks 4, 8, 12, 16, or 20, the dose of study medication was up-titrated incrementally to EPL 100 mg and 200 mg QD, or ENAL 20 mg and 40 mg QD. […] At 24 wks and 12 months, changes in BP, RAAS hormone profile, urinary albumin excretion (urinary albumin: creatinine ratio [UACR]), laboratory tests, safety, and adverse events (AEs) were assessed.

[9] = after 24 weeks, titration-to-effect
[10] = Week 24, EPL 50-200 mg QD, ENAL 10-40 mg QD titrated

## COC(=O)[C@@H]1CC2=CC(=O)CC[C@]2(C)[C@@]23O[C@@H]2C[C@@]2(C)[C@@H](CC[C@@]24CCC(=O)O4)[C@H]13 [Eplerenone, Pregn-4-ene-7,21-dicarboxylic acid, 9,11-epoxy-17-hydroxy-3-oxo-, γ-lactone, methyl ester, (7α, 11α, 17β)-]
[1]
  cardiac histopathologic damage: prevents the histopathologic damage
[2]
  stroke signs: no signs of stroke
[3]; 24-week study
  Edema rates (%): 3.7%
[3]; 24 weeks
  peripheral edema frequency: 3.7%
  reduction in pulse pressure: −15.9 mmHg
  symptoms with significant and clinically meaningful worsening in distress from Baseline (QoL): no worsening in distress
[3]; 24 weeks, EPL 50-200 mg QD, AML 2.5-10 mg QD
  reduction in SBP: −20.5 mmHg
[3]; [9]
  Pulse Pressure (change): −15.9 ± 0.96 mmHg
  Systolic BP (change): −20.5 ± 1.14 mmHg
[3]; in vivo
  safety and tolerability: safe and well tolerated
[3]; only for patients with baseline microalbuminuria (>30 mg/g), 24 weeks
  Δ microalbuminuria (%): −52.3%
[3]; patients with baseline microalbuminuria (>30 mg/g)
  reduction in UACR: −27.1%
[4]; eplerenone 50-200 mg, amlodipine 2.5-10 mg, 16 weeks
  anti-hypertensive effect, mean 24 hour systolic ABPM: comparable
[4]; in vivo
  safety and tolerability: safe and well tolerated
[5]; Ex-Japan
  AUC (0-inf) Mean Ratio fed/fasted: 1.079
[5]; Japan
  AUC (0-inf) Mean Ratio fed/fasted: 1.218
[5]; Ex-Japan, Fasted
  AUC(0-inf): 9060 ng·h/mL
  Cmax: 1620 ng/mL
  AUC: 8940 ng·h/mL
[5]; Ex-Japan, Fed
  AUC(0-inf): 9780 ng·h/mL
  AUC: 9650 ng·h/mL
[5]; Ex-Japan, Fed (high fat meal)
  Cmax: 1320 ng/mL
[5]; Japan, Fasted
  AUC(0-inf): 8970 ng·h/mL
  Cmax: 1310 ng/mL
[5]; Japan, Fed
  AUC(0-inf): 10900 ng·h/mL
  Cmax: 1520 ng/mL
[6]; 16 weeks
  treatment of mild-to-moderate hypertension in black hypertensive patients: superior to losartan
[6]; All Patients
  Active Renin (% change): +45.6%
  ΔDBP: −10.3 mmHg
  ΔSBP: −12.8 mmHg
[6]; Black Patients
  Active Renin (% change): +39.3%
  ΔDBP: −10.2 mmHg
  ΔSBP: −13.5 mmHg
[6]; Week 16, EPL 50-200 mg QD, LOS 50-100 mg QD
  adjusted mean percent change from baseline in UACR: −21.6%
[6]; White Patients
  Active Renin (% change): +57.1%
  ΔDBP: −11.1 mmHg
  ΔSBP: −12.3 mmHg
[6]; human, in vivo
  safety and tolerability: safe and well-tolerated
[7]; 25 mg QD
  Δ Ambulatory BP, diastolic: −4.4 mmHg
  Δ Ambulatory BP, systolic: −6.4 mmHg
  Δ Clinic BP, diastolic: −3.7 mmHg
  Δ Clinic BP, systolic: −5.7 mmHg
[7]; 50 mg QD
  Δ Ambulatory BP, diastolic: −4.1 mmHg
  Δ Ambulatory BP, systolic: −6.8 mmHg
  Δ Clinic BP, diastolic: −4.6 mmHg
  Δ Clinic BP, systolic: −6.7 mmHg
[7]; 100 mg QD
  Δ Ambulatory BP, diastolic: −5.5 mmHg
  Δ Ambulatory BP, systolic: −9.1 mmHg
  Δ Clinic BP, diastolic: −6.3 mmHg
  Δ Clinic BP, systolic: −10.4 mmHg
[7]; 200 mg QD
  Δ Ambulatory BP, diastolic: −5.7 mmHg
  Δ Ambulatory BP, systolic: −10.3 mmHg
  Δ Clinic BP, diastolic: −5.4 mmHg
  Δ Clinic BP, systolic: −8.8 mmHg
[7]; 25-200 mg QD
  gynecomastia, menstrual abnormalities, breast pain: no reports of gynecomastia, menstrual abnormalities, or breast pain
[8]; 12-month study
  patients experiencing coughing: 2.4%
  patients experiencing hyperglycemia: 0.0%
  patients experiencing urinary tract infections (UTI): 0.4%
[8]; 12 months
  DBP change: −13.3 mmHg
  SBP change: −16.5 mmHg
[8]; [10]
  DBP change: −11.2 mmHg
  SBP change: −14.5 mmHg
[8]; Week 24, patients with baseline UACR ≧30 mg/g
  reduction in UACR: −61.5%
[8]; in vivo
  safety and tolerability: safe and well tolerated
